The test system of assay [1] is Respiratory syncytial virus recombinant with luciferase (RSV-Luc5) in HEp-2 cells. The assay is described as follows: HEp-2 RSV-Luc5 384-well assay (EC50 RSVFLUC Hep2-384 v2, Example V). It counts as cell-based. The conditions noted are these: human respiratory syncytial virus, HEp-2, 72 h, read-out: RSV Hep-2 FLuc EC50 (v2) (nM) (per Ex. V). The method in brief:
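HEp-2 cells (4,000/well) infected with RSV-Luc5 at MOI 0.5 in DMEM/10% FBS with compound, 10-point 1:3 dilutions, 3 days at 37 °C. Replication read by One-Glo luminescence, normalized to remdesivir (0%) and DMSO (100%). EC50 from non-linear regression as concentration giving 50% reduction.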

The subject of assay [2] is Respiratory syncytial virus recombinant with luciferase (RSV-Luc5) in NHBE cells. The experiment in a line: NHBE RSV-Luc5 384-well assay (EC50 RSVFLUC NHBE-384, Example U). It counts as cell-based. The conditions noted are these: human respiratory syncytial virus, 72 h, read-out: RSV FLuc NHBE 384 EC50 (v2) (nM) (per Ex. U). The procedure, abridged: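 Passage-2 NHBE cells (5,000/well) on pre-spotted compounds, 10-point 1:3 series, infected with RSV-Luc5 at MOI 1 and incubated 3 days at 37° C. Replication read by One-Glo luminescence, normalized to remdesivir (0%) and DMSO (100%); EC50 = concentration reducing replication by 50%, by non-linear regression.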

For the molecule `CCCCCCCCCCCCCCCCCCOC[C@H](COP(=O)(O)OC[C@@]1(C#N)O[C@@H](c2ccc3c(N)ncnn23)[C@H](O)[C@@H]1O)OCc1cc(F)cc(C#N)c1` [Compound 1, ((2R,3S,4R,5S)-5-(4-aminopyrrolo[2,1-f][1,2,4]triazin-7-yl)-2-cyano-3,4-dihydroxytetrahydrofuran-2-yl)methyl ((R)-2-((3-cyano-5-fluorobenzyl)oxy)-3-(octadecyloxy)propyl) hydrogen phosphate], the EC50 is 229 nM in assay [1] and 54 nM in assay [2].

`CCCCCCCCCCCCCCCCCCOC[C@H](COP(=O)(O)OC[C@@]1(C#N)O[C@@H](c2ccc3c(N)ncnn23)[C@H](O)[C@@H]1O)OCc1ccc(C#N)c(Cl)c1` [Compound 7, ((2R,3S,4R,5S)-5-(4-aminopyrrolo[2,1-f][1,2,4]triazin-7-yl)-2-cyano-3,4-dihydroxytetrahydrofuran-2-yl)methyl ((R)-2-((3-chloro-4-cyanobenzyl)oxy)-3-(octadecyloxy)propyl) hydrogen phosphate]: the EC50 worked out at 284 nM in assay [1] and 36 nM in assay [2].

For the molecule `CCCCCCCCCCCCCCCCCCOC[C@H](COP(=O)(O)OC[C@@]1(C#N)O[C@@H](c2ccc3c(N)ncnn23)[C@H](O)[C@@H]1O)OCc1ccc(C#N)c(-n2cncn2)c1` [Compound 16, ((2R,3S,4R,5S)-5-(4-aminopyrrolo[2,1-f][1,2,4]triazin-7-yl)-2-cyano-3,4-dihydroxytetrahydrofuran-2-yl)methyl ((R)-2-((4-cyano-3-(1H-1,2,4-triazol-1-yl)benzyl)oxy)-3-(octadecyloxy)propyl) hydrogen phosphate], the EC50 in assay [1] was 36 nM; in assay [2] it was below 3 nM.

`CCCCCCCCCCCCCCCCCCOC[C@H](COP(=O)(O)OC[C@@]1(C#N)O[C@@H](c2ccc3c(N)ncnn23)[C@H](O)[C@@H]1O)OCc1ccc(C#N)nc1` [Compound 19, ((2R,3S,4R,5S)-5-(4-aminopyrrolo[2,1-f][1,2,4]triazin-7-yl)-2-cyano-3,4-dihydroxytetrahydrofuran-2-yl)methyl ((R)-2-((6-cyanopyridin-3-yl)methoxy)-3-(octadecyloxy)propyl) hydrogen phosphate]: in assay [1], the concentration giving a half-maximal response (EC50) was determined as 60 nM.

Consider `CCCCCCCCCCCCCCCCCCOC[C@H](COP(=O)(O)OC[C@@]1(C#N)O[C@@H](c2ccc3c(N)ncnn23)[C@H](O)[C@@H]1O)Oc1cccc(C#N)n1` [Compound 21, ((2R,3S,4R,5S)-5-(4-aminopyrrolo[2,1-f][1,2,4]triazin-7-yl)-2-cyano-3,4-dihydroxytetrahydrofuran-2-yl)methyl ((R)-2-((6-cyanopyridin-2-yl)oxy)-3-(octadecyloxy)propyl) hydrogen phosphate], for which the EC50 was determined as 222 nM in assay [1] and 29 nM in assay [2].

As for `CCCCCCCCCCCCCCCCCCOC[C@H](COP(=O)(O)OC[C@@]1(C#N)O[C@@H](c2ccc3c(N)ncnn23)[C@H](O)[C@@H]1O)Oc1ccc(C#N)c(OC(C)C)c1` [Compound 23, ((2R,3S,4R,5S)-5-(4-aminopyrrolo[2,1-f][1,2,4]triazin-7-yl)-2-cyano-3,4-dihydroxytetrahydrofuran-2-yl)methyl ((R)-2-(4-cyano-3-isopropoxyphenoxy)-3-(octadecyloxy)propyl) hydrogen phosphate], the values for the EC50 in assay [1] and in assay [2] were 71 nM and 4 nM, respectively.

As for `CCCCCCCCCCCCCCCCCCC[C@H](COP(=O)(O)OC[C@@]1(C#N)O[C@@H](c2ccc3c(N)ncnn23)[C@H](O)[C@@H]1O)OCc1cc(F)cc(C#N)c1` [Compound 25, ((2R,3S,4R,5S)-5-(4-aminopyrrolo[2,1-f][1,2,4]triazin-7-yl)-2-cyano-3,4-dihydroxytetrahydrofuran-2-yl)methyl ((R)-2-((3-cyano-5-fluorobenzyl)oxy)henicosyl) hydrogen phosphate], the EC50 in assay [1] was 2920 nM; in assay [2], 169 nM.

For the molecule `CCCCCCCCCCCCCCCCCCC[C@H](COP(=O)(O)OC[C@@]1(C#N)O[C@@H](c2ccc3c(N)ncnn23)[C@H](O)[C@@H]1O)OCc1ccc(C#N)c(OC(C)C)c1` [Compound 28, ((2R,3S,4R,5S)-5-(4-aminopyrrolo[2,1-f][1,2,4]triazin-7-yl)-2-cyano-3,4-dihydroxytetrahydrofuran-2-yl)methyl ((R)-2-((4-cyano-3-isopropoxybenzyl)oxy)henicosyl) hydrogen phosphate], the EC50 in assay [1] is 353 nM; in assay [2], 46 nM.

With `CCCCCCCCCCCCCCCCCCC[C@H](COP(=O)(O)OC[C@@]1(C#N)O[C@@H](c2ccc3c(N)ncnn23)[C@H](O)[C@@H]1O)OCc1ccc(-n2cncn2)c(C#N)c1` [Compound 30, ((2R,3S,4R)-5-(4-aminopyrrolo[2,1-f][1,2,4]triazin-7-yl)-2-cyano-3,4-dihydroxytetrahydrofuran-2-yl)methyl ((R)-2-((3-cyano-4-(1H-1,2,4-triazol-1-yl)benzyl)oxy)henicosyl) hydrogen phosphate], the EC50 in assay [1] is 115 nM; in assay [2], 14 nM.

For `CCCCCCCCCCCCCCCCCCCC[C@H](COP(=O)(O)OC[C@@]1(C#N)O[C@@H](c2ccc3c(N)ncnn23)[C@H](O)[C@@H]1O)OCc1cc(F)cc(C#N)c1` [Compound 34, ((2R,3S,4R)-5-(4-aminopyrrolo[2,1-f][1,2,4]triazin-7-yl)-2-cyano-3,4-dihydroxytetrahydrofuran-2-yl)methyl ((R)-2-((3-cyano-5-fluorobenzyl)oxy)docosyl) hydrogen phosphate], the EC50 was determined as 1890 nM in assay [1] and 272 nM in assay [2].

Turning to `CCCCCCCCCCCCCCCCC[C@H](COP(=O)(O)OC[C@@]1(C#N)O[C@@H](c2ccc3c(N)ncnn23)[C@H](O)[C@@H]1O)OCc1cc(F)cc(C#N)c1` [Compound 36, ((2R,3S,4R,5S)-5-(4-aminopyrrolo[2,1-f][1,2,4]triazin-7-yl)-2-cyano-3,4-dihydroxytetrahydrofuran-2-yl)methyl ((R)-2-((3-cyano-5-fluorobenzyl)oxy)nonadecyl) hydrogen phosphate], the concentration giving a half-maximal response (EC50) turned out to be 353 nM in assay [1] and 51 nM in assay [2].

Turning to `CCCCCCCCCCCCCCCCCC[C@@H](COP(=O)(O)OC[C@@]1(C#N)O[C@@H](c2ccc3c(N)ncnn23)[C@H](O)[C@@H]1O)OCc1cc(F)cc(C#N)c1` [Compound 37, ((2R,3S,4R)-5-(4-aminopyrrolo[2,1-f][1,2,4]triazin-7-yl)-2-cyano-3,4-dihydroxytetrahydrofuran-2-yl)methyl ((S)-2-((3-cyano-5-fluorobenzyl)oxy)icosyl) hydrogen phosphate], the EC50 in assay [1] turned out to be 1240 nM; in assay [2], 82 nM.

Consider `CCCCCCCCCCCCCCCCCCC[C@H](COP(=O)(O)OC[C@@]1(C#N)O[C@@H](c2ccc3c(N)ncnn23)[C@H](O)[C@@H]1O)Oc1ccc(C#N)c(OC(C)C)c1` [Compound 38, ((2R,3S,4R,5S)-5-(4-aminopyrrolo[2,1-f][1,2,4]triazin-7-yl)-2-cyano-3,4-dihydroxytetrahydrofuran-2-yl)methyl ((R)-2-(4-cyano-3-isopropoxyphenoxy)henicosyl) hydrogen phosphate], for which the results for the EC50 in assay [1] and in assay [2] were 212 nM and 25 nM, respectively.

On to `CCCCCCCCCCCCCCCCCCC[C@H](COP(=O)(O)OC[C@@]1(C#N)O[C@@H](c2ccc3c(N)ncnn23)[C@H](O)[C@@H]1O)Oc1cc(OC)c(C#N)c(OC)c1` [Compound 39, ((2R,3S,4R,5S)-5-(4-aminopyrrolo[2,1-f][1,2,4]triazin-7-yl)-2-cyano-3,4-dihydroxytetrahydrofuran-2-yl)methyl ((R)-2-(4-cyano-3,5-dimethoxyphenoxy)henicosyl) hydrogen phosphate], for which the EC50 in assay [1] was found to be 327 nM; in assay [2], 51 nM.

For the molecule `CCCCCCCCCCCCCCCCCCOCC(COc1cc(F)cc(C#N)c1)COP(=O)(O)OC[C@@]1(C#N)O[C@@H](c2ccc3c(N)ncnn23)[C@H](O)[C@@H]1O` (stereo partly drawn) [Compound 43, ((2R,3S,4R,5S)-5-(4-aminopyrrolo[2,1-f][1,2,4]triazin-7-yl)-2-cyano-3,4-dihydroxytetrahydrofuran-2-yl)methyl (3-(3-cyano-5-fluorophenoxy)-2-((octadecyloxy)methyl)propyl) hydrogen phosphate], the values for the EC50 in assay [1] and in assay [2] were 707 nM and 98 nM, respectively.

For `CCCCCCCCCCCCCCCCCCCC[C@H](COP(=O)(O)OC[C@@]1(C#N)O[C@@H](c2ccc3c(N)ncnn23)[C@H](O)[C@@H]1O)Oc1cccc(C#N)c1` [Compound 51, ((2R,3S,4R,5S)-5-(4-aminopyrrolo[2,1-f][1,2,4]triazin-7-yl)-2-cyano-3,4-dihydroxytetrahydrofuran-2-yl)methyl ((R)-2-(3-cyanophenoxy)docosyl) hydrogen phosphate], the EC50 in assay [1] came out at 436 nM; in assay [2] it was 56 nM.

Consider `CCCCCCCCCCCCCCCCCOC[C@H](COP(=O)(O)OC[C@@]1(C#N)O[C@@H](c2ccc3c(N)ncnn23)[C@H](O)[C@@H]1O)OCc1cc(F)cc(C#N)c1` [Compound 53, ((2R,3S,4R,5S)-5-(4-aminopyrrolo[2,1-f][1,2,4]triazin-7-yl)-2-cyano-3,4-dihydroxytetrahydrofuran-2-yl)methyl ((R)-2-((3-cyano-5-fluorobenzyl)oxy)-3-(heptadecyloxy)propyl) hydrogen phosphate], for which the EC50 in assay [1] turned out to be 200 nM; in assay [2], 22 nM.

The values are drawn from US20250034182A1, “PHOSPHOLIPID COMPOUNDS AND METHODS OF MAKING AND USING THE SAME” (priority 2021, published 2025).
